PubChem BioAssay (NCI)
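Where inhibition never reached the appropriate level, the endpoint shown equals the highest concentration tested. Otherwise, values were interpolated linearly from a five-concentration, 48-hour dose response in 96-well plates. Here, GI50 denotes the concentration required for 50% inhibition of growth. The concentration for full growth arrest is given as TGI.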

What was measured:
Experiment in all cases: NCI tumour cell line growth inhibition, 48 h
[1] = test system: DLD-1 colon
[2] = test system: HCC-2998 colon
[3] = test system: LXFL 529 NSCLC
[4] = test system: MOLT-4 leukemia
[5] = test system: SNB-78 CNS
[6] = test system: TK-10 renal
[7] = test system: HS 578T breast
[8] = test system: MDA-MB-435

| SMILES | TGI [1] [µM] | TGI [2] [µM] | TGI [3] [µM] | TGI [4] [µM] | TGI [5] [µM] | TGI [6] [µM] | TGI [7] [µM] | TGI [8] [µM] | GI50 [1] [µM] | GI50 [2] [µM] | GI50 [3] [µM] | GI50 [4] [µM] | GI50 [5] [µM] | GI50 [6] [µM] |
| --- | --- | --- | --- | --- | --- | --- | --- | --- | --- | --- | --- | --- | --- | --- |
| NC12CC3CC(C1)CC(C(=O)O)(C3)C2 | > 100 | > 100 | > 100 | > 100 | > 100 | > 100 |  |  |  |  |  |  |  |  |
| Cc1c(C(=O)C/C(=N/NC(=O)C[N+](C)(C)C)C(=O)Nc2ccc(Cl)cc2)[n+](=O)c2ccccc2n1O | > 100 | > 100 | > 100 | > 100 | > 100 | > 100 |  |  |  |  |  |  |  |  |
| COCCCNC(=O)C1C(=O)C(=O)N(CCCOC)C1=O (stereo unspecified) | > 100 | > 100 | > 100 | > 100 | > 100 | > 100 |  |  |  |  |  |  |  |  |
| C/C(O)=C(\N=O)C(=O)Nc1ccc(Cl)cc1Cl | > 100 | > 100 | > 100 | > 100 | > 100 | > 100 |  |  |  |  |  |  |  |  |
| N#C/C(=C\c1ccc2ccccc2c1)c1ccccc1 | > 100 | 87.9 | > 100 | 94.5 | 84.7 | 75.7 |  |  |  |  |  |  |  |  |
| COc1ccc(NC(=O)CC(=O)N/N=C/c2ccc(N(CCC#N)S(C)(=O)=O)cc2)cc1 | > 100 | > 100 | > 100 | > 100 | > 100 | > 100 |  |  |  |  |  |  |  |  |
| Nc1c(-c2ccc(Cl)cc2)[n+]([O-])c2ccccc2[n+]1[O-] | > 100 | > 100 | > 100 | > 100 | > 100 | > 100 |  |  |  |  |  |  |  |  |
| CC(SC(=S)N1CCOCC1)c1cc2oc(=O)n(C)c2cc1Cl (stereo unspecified) | > 100 | > 100 | > 100 | > 100 | > 100 | > 100 |  |  |  |  |  |  |  |  |
| O=C(CCc1cc(-c2ccccc2)nc(=S)[nH]1)N(Cc1ccccc1)Cc1ccccc1 | > 100 | > 100 | > 100 | > 100 | > 100 | > 100 |  |  |  |  |  |  |  |  |
| COc1ccc2c(c1)[n+](=O)c(C(=O)C/C(=N/OCCCc1ccccc1)C(=O)NC13CC4CC(CC(C4)C1)C3)c(C)n2[O-] | > 100 | > 100 | > 100 | > 100 | > 100 | > 100 |  |  |  |  |  |  |  |  |
| Nc1cccc(S(=O)(=O)NCC(=O)O)c1 | > 100 | > 100 | > 100 | > 100 | > 100 | > 100 |  |  |  |  |  |  |  |  |
| Cc1cc(Cl)cc2c1NC(=O)C2(O)CC(=O)c1ccco1 (stereo unspecified) | > 100 | > 100 | > 100 | 81.2 | > 100 | > 100 | > 100 | 14.2 |  |  |  |  |  |  |
| CCc1ccccc1NC(=O)C1=C(C)NC(C)=C(C(=O)Nc2ccccc2CC)C1c1ccc2c(c1)OCO2 | > 100 | 41 | 98.4 | > 100 | > 100 | > 100 |  |  |  |  |  |  |  |  |
| NC1=NC(c2ccccc2)CC(c2cc(Cl)ccc2O)=N1 (stereo unspecified) | 25.9 | 29.4 | 28.3 | 33.9 | 42.1 | 40.5 |  |  |  |  |  |  |  |  |
| O=C(CC1(O)C(=O)Nc2c(Cl)ccc(Cl)c21)c1ccc(F)cc1 (stereo unspecified) | > 100 | > 100 | 92.1 | 95.6 | > 100 | > 100 |  |  |  |  |  |  |  |  |
| O=C(O)CCSC(=O)Nc1ccc([N+](=O)[O-])cc1 | > 100 | > 100 | > 100 | > 100 | > 100 | > 100 |  |  |  |  |  |  |  |  |
| O=C(N/C(=C\c1cccc([N+](=O)[O-])c1)c1nc2ccc([N+](=O)[O-])cc2[nH]1)c1ccccc1 | > 100 | > 100 | 75.1 | 51.4 | > 100 | > 100 |  |  |  |  |  |  |  |  |
| CCC[CH2][Sn]1([CH2]CCC)[O]C(=O)CN=Cc2c(ccc3ccccc23)[O]1 | > 100 | 2.02 | 0.249 | 1.14 | 1.4 | 0.743 |  |  | 0.811 | 0.777 | 0.107 | 0.319 | 0.282 | 0.293 |
